Assay results as given in patent US7084270B2, “Pyrimido compounds having antiproliferative activity” (Hoffman-La Roche Inc., priority 2002, dated 2006).
Like-named read-outs stand apart in the source and are kept apart here.

Legend:
KDR = target: T1, KDR (Homo sapiens, UniProt P35968); assay: KDR kinase HTRF assay; type: biochemical; details: enzyme inhibition, 0.3 mM ATP
T1 construct: EEE-tag
Method: (§1) To determine inhibition of KDR, FGFR, EGFR, and PDGFR activity, kinase assays were conducted using an HTRF (Homogeneous Time Resolved Fluorescence) assay. This assay is described in A. J. Kolb et. al., Drug Discovery Today, 1998, 3(7), p 333.
Prior to kinase reaction, recombinant EEE-tagged KDR was activated in the presence of activation buffer (50 mM HEPES, pH 7.4, 1 mM DTT, 10% glycerol, 150 mM NaCl, 0.1 mM EDTA, 26 mM MgCl2, and 4 mM ATP). The enzyme was incubated at 4° C. for 1 hour.
(§2) Kinase activity assays were performed in 96-well polypropylene plates (Falcon) with a total volume of 90 μL in each well. Each well contained 1 μM KDR substrate (Biotin-EEEEYFELVAKKKK), 1 nM activated KDR, and a test compound with one of 8 assay concentrations ranging from 100 μM to […] (1:5 serial dilution). The kinase activity assay was done in the presence of 100 mM HEPES, pH 7.4, 1 mM DTT, 0.1 mM Na2VO4, 25 mM MgCl2, 50 mM NaCl (from KDR stock solution), 1% DMSO (from compound), 0.3 mM ATP (at Km concentration) and 0.02% BSA. The reaction was incubated at 37° C. for 30 minutes. To stop the KDR reaction, 72 μL of reaction mixture was transferred into a STOP plate containing 18 μL of revelation buffer (20 mM EDTA, 50 mM HEPES, pH 7.4, 0.02% BSA, 10 nM Eu-labelled anti-pY antibody (final conc. 2 nM), and 100 nM streptavidin (final conc. 20 nM)). After mixing, 35 μL of solution was transferred into duplicate wells of a 384-well black plate (Costar), and read at 615/665 nm on a Wallac Victor 5 reader.
(§3) Compound IC50 values were determined from duplicate sets of data, and calculated by using Excel and fitting data to equation Y=[(a−b)/{1+(X/c)^d]+b, where a and b are enzyme activity in the presence of no test inhibitor compound and an infinite amount of inhibitor test compound, respectively, c is the IC50 and d is the hill constant of the compound response. The IC50 value is the concentration of test compound that reduces by 50% the enzyme activity under the test conditions described.

FGFR = target: T2, FGFR; assay: FGFR kinase HTRF assay; type: biochemical; details: enzyme inhibition, 10 μM ATP
T2 construct: fused on or other part: GST tag
Method: as §1, §2
FGFR, EGFR, and PDGFR activity assays were carried out as described above for the KDR activity assay with the following differences. GST-tagged FGFR enzyme was activated at room temperature for 1 hour in the following activation buffer: 100 mM HEPES, pH 7.4, 50 mM NaCl, 20 mM MgCl2, and 4 mM ATP. […] The rest of the assay was performed in the same manner as KDR assay.
as §3

EGFR = EGFR (Homo sapiens, UniProt P00533); assay: EGFR kinase HTRF assay; type: biochemical; details: enzyme inhibition, 0.5 μM ATP
EGFR, sequence (P00533 25-1210, species assumed): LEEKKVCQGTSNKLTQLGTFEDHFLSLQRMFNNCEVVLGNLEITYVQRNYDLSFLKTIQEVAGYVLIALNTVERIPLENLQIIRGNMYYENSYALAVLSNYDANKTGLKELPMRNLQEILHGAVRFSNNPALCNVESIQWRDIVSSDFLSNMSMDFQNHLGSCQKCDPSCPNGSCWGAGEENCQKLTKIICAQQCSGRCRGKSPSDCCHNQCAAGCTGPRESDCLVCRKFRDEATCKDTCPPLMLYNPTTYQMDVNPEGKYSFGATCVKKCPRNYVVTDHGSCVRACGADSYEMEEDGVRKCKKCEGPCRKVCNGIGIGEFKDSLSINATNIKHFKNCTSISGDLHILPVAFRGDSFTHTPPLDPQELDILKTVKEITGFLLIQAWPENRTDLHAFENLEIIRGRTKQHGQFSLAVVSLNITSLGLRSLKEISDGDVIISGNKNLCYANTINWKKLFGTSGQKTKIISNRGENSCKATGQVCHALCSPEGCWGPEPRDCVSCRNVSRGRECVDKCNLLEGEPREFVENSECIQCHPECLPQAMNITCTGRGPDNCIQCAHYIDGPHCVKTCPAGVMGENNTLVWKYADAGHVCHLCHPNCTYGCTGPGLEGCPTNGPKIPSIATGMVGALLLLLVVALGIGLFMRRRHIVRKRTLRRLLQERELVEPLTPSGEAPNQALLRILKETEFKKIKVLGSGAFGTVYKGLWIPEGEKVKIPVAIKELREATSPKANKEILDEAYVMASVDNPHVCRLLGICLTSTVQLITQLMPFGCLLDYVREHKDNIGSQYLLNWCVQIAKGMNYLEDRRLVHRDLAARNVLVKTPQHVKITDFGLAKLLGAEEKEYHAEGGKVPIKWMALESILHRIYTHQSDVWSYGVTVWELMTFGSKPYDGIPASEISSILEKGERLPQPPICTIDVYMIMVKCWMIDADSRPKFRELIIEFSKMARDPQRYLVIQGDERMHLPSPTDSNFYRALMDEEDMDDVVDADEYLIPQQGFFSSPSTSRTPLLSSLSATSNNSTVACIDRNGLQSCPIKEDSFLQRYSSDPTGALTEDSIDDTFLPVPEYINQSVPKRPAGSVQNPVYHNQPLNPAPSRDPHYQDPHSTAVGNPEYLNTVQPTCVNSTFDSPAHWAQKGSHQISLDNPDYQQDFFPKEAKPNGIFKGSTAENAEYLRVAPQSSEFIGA
Method: as §1, §2
The rest of the assay was performed in the same manner as the KDR assay.
as §3

PDGFR = PDGFR kinase HTRF assay; type: biochemical; details: enzyme inhibition, 2.3 μM ATP
Method: as §1, §2
The PDGFR kinase activity assay was performed with 1 μM substrate (Biotin-EEEEYFELV), 1.0 nM PDGFR, test compounds, 100 mM HEPES, pH 7.4, 1 mM DTT, 5 mM MgCl2, 2 mM MnCl2, 1% DMSO, 2.3 μM ATP (Km for PDGFR), 0.1 mM Na2VO4, and 0.02% BSA. The rest of the assay was performed in the same manner as the KDR assay.
as §3

[1] = test system: Human umbilical vein endothelial cells (HUVEC), VEGF-stimulated; assay: VEGF-stimulated HUVEC proliferation assay (BrdU); type: cell-based; details: BrdU labeling, VEGF 20 ng per mL, 24 hour exposure, read-out: HUVEC/VEFG IC50
Method: The antiproliferative activity of test compounds of this invention in cell-based assays was evaluated by BrdU assay using the BrdU kit (Roche Biochemicals 1-647-229). Human umbilical vein endothelial cells (Clonetics CC-2519) were cultured in EGM-2 (Clonetics CC-3162) medium and seeded at 10000 cells per well in a volume of 200 μL of EGM-2 (Clonetics CC-3162) media in a 96-well flat bottom plates (Costar 3595) overnight. After 24 hours of growth at 37° C. with 5% CO2, the incubation media was removed slowly by aspiration and the content of each well was washed with 300 μL pre-warmed EBM-2 (Clonetics CC-3156) containing 50 μg per mL of gentamycin and 50 ng per mL of amphotercin-B (Clonetics CC-4083). Subsequently, the remaining media was again aspirated and replaced with 160 μL per well of serum starvation media (EBM-2 supplemented with 1% heat inactivated FBS (Clonetics CC-4102), 50 μg per mL gentamycin and 50 ng per mL of amphotercin-B (Clonetics CC-4083), 10 units per mL of Wyeth-Ayerst heparin (NDC0641-0391-25), and 2 mM L-glutamine (GIBCO 25030-081). After serum starving the cells for 24 hours, 20 μL of test compound at 10× test concentration in serum starvation medium with 2.5% DMSO was added to the appropriate wells. The control wells contained 20 μL of serum starvation medium with 2.5% DMSO. Plates were returned to the incubator for 2 hours. […]
(§4) After 24 hour exposure to the test compounds, the cells were labeled with BrdU (Roche Biochemicals 1-647-229), by adding 20 μL per well of BrdU labeling reagent that has been diluted (1:100) in serum starvation medium. […] The plates were read at 450 nm with reference wavelength of 650 nm. The percent inhibition for each test compound was calculated by subtracting the absorbency of the blank (no cells) wells from all wells, then subtracting the division of the average absorbency of each test duplicate by the average of the controls from 1. […] The IC50 is determined from the linear regression of a plot of the logarithm of the concentration versus percent inhibition.

[2] = test system: Human umbilical vein endothelial cells (HUVEC), FGF-stimulated; assay: FGF-stimulated HUVEC proliferation assay (BrdU); type: cell-based; details: BrdU labeling, FGF 5 ng per mL, 24 hour exposure, read-out: HUVEC/bFGFR IC50
Method: The antiproliferative activity of test compounds of this invention in cell-based assays was evaluated by BrdU assay using the BrdU kit (Roche Biochemicals 1-647-229). Human umbilical vein endothelial cells (Clonetics CC-2519) were cultured in EGM-2 (Clonetics CC-3162) medium and seeded at 10000 cells per well in a volume of 200 μL of EGM-2 (Clonetics CC-3162) media in a 96-well flat bottom plates (Costar 3595) overnight. After 24 hours of growth at 37° C. with 5% CO2, the incubation media was removed slowly by aspiration and the content of each well was washed with 300 μL pre-warmed EBM-2 (Clonetics CC-3156) containing 50 μg per mL of gentamycin and 50 ng per mL of amphotercin-B (Clonetics CC-4083). Subsequently, the remaining media was again aspirated and replaced with 160 μL per well of serum starvation media (EBM-2 supplemented with 1% heat inactivated FBS (Clonetics CC-4102), 50 μg per mL gentamycin and 50 ng per mL of amphotercin-B (Clonetics CC-4083), 10 units per mL of Wyeth-Ayerst heparin (NDC0641-0391-25), and 2 mM L-glutamine (GIBCO 25030-081). After serum starving the cells for 24 hours, 20 μL of test compound at 10× test concentration in serum starvation medium with 2.5% DMSO was added to the appropriate wells. The control wells contained 20 μL of serum starvation medium with 2.5% DMSO. Plates were returned to the incubator for 2 hours. After pre-incubating the cells with the test compounds for 2 hours, 20 μL of growth factors at 10×assay concentration diluted in serum starvation media, FGF at 50 ng per mL, or VEGF (R&D systems 293-VE) at 200 ng per mL were added. The final concentration of FGF in the assay was 5 ng per mL, and the final concentration of VEGF in the assays was 20 ng per mL. The growth factor free control wells had 20 μL per well of serum starvation media with the same amount of BSA as the wells with growth factors. The plates were returned to the incubator for an additional 22 hours.
as §4, with “medium. The plates were then returned to the incubator for 4 hours. The labeling medium was removed by draining the medium onto paper towels.” for “medium.”

T1 sequence (P35968 20-1356, species assumed): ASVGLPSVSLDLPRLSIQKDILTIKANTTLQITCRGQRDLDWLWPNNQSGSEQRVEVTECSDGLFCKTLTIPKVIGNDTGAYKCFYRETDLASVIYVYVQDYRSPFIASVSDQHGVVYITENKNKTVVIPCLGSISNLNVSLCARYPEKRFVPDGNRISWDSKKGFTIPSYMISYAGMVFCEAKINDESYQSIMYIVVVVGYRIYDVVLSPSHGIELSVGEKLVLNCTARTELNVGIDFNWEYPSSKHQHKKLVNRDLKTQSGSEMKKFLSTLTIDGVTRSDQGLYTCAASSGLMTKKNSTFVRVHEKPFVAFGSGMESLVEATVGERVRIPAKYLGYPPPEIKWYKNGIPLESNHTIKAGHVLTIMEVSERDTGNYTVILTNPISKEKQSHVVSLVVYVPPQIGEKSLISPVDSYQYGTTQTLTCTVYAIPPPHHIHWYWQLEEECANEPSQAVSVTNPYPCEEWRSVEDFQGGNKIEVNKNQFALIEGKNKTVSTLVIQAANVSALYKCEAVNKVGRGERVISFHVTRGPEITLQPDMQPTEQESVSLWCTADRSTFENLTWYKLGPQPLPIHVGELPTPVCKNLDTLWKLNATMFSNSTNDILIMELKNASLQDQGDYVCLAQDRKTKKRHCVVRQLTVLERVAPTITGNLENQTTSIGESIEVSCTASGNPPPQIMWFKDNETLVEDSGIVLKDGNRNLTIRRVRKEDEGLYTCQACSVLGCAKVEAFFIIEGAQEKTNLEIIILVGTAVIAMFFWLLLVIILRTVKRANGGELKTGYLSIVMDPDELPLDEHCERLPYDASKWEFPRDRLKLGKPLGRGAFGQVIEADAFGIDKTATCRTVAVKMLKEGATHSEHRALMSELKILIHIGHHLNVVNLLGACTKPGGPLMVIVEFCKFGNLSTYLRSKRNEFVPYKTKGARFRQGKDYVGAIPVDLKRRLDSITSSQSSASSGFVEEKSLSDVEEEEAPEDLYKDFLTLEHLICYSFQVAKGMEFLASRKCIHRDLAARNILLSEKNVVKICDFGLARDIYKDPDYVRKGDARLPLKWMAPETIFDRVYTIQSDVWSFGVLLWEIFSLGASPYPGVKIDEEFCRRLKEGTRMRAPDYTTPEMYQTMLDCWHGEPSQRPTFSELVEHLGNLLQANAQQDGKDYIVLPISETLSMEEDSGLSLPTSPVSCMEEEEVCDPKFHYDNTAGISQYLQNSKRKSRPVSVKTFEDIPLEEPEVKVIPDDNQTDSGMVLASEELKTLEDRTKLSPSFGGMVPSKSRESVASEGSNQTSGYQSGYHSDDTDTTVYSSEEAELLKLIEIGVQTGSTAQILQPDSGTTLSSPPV

Row | SMILES | IC50 (FGFR) [nM] | IC50 (PDGFR) [nM] | IC50 (KDR) [nM] | IC50 (EGFR) [nM] | IC50 [1] [nM] | IC50 ([2]; Homo sapiens, HUVEC, 24 h) [nM] | IC50 (FGFR; methanesulfonate salt) [nM] | IC50 (PDGFR; methanesulfonate salt) [nM] | IC50 ([2]; methanesulfonate salt) [nM] | melting point [°C]
1 | COc1ccc(N2Cc3cnc(Nc4ccccc4)nc3N(c3ccccc3)C2=O)cc1 [Example 1g, 3-(4-Methoxyphenyl)-1-phenyl-7-(phenylamino)-1,3,4-trihydropyrimidino[4,5-d]pyrimidin-2-one] | 190 | 130 | 44 | 360 | 120 | 310 |  |  |  | 
2 | COc1ccc(N2Cc3cnc(Nc4ccccc4)nc3N(c3ccccc3)C2=O)cc1.CS(=O)(=O)O [Example 1h, 3-(4-Methoxyphenyl)-1-phenyl-7-(phenylamino)-1,3,4-trihydropyrimidino[4,5-d]pyrimidin-2-one methanesulfonate salt] |  |  | 76 | 350 |  |  | 170 | 150 | 430 | 245 to 251
3 | COc1ccc(N2Cc3cnc(N(C(=O)OCOC(=O)CN(C)C)c4ccccc4)nc3N(c3ccccc3)C2=O)cc1 [Example 5a] |  |  |  |  |  |  |  |  |  | 172

Second part, led by results:

Row | IC50 (FGFR) [nM] | IC50 (PDGFR) [nM] | SMILES | IC50 (KDR) [nM] | IC50 (EGFR) [nM] | IC50 [1] [nM] | IC50 ([2]; Homo sapiens, HUVEC, 24 h) [nM] | IC50 (FGFR; methanesulfonate salt) [nM] | IC50 (PDGFR; methanesulfonate salt) [nM] | IC50 ([2]; methanesulfonate salt) [nM] | melting point [°C]
4 | 110 | 64 | COc1ccc(N2Cc3cnc(Nc4ccc(O)cc4)nc3N(c3ccccc3)C2=O)cc1 [Example 18, 7-[(4-Hydroxyphenyl)amino]-3-(4-methoxyphenyl)-1-phenyl-1,3,4-trihydropyrimidino[4,5-d]pyrimidin-2-one] | 29 | 130 | 63 | 150 |  |  |  | 
5 | 91 | 82 | COc1ccc(Nc2ncc3c(n2)N(c2ccccc2)C(=O)N(c2ccc(OC)cc2)C3)cc1 [Example 20, 3-(4-Methoxyphenyl)-7-[(4-methoxyphenyl)amino]-1-phenyl-1,3,4-trihydropyrimidino[4,5-d]pyrimidin-2-one] | 24 | 180 | 96 | 350 |  |  |  | 
